Measured values taken from PMC9034499, “RORγt agonist enhances anti-PD-1 therapy by promoting monocyte-derived dendritic cells through CXCL10 in cancers” (Journal of Experimental & Clinical Cancer Research : CR, 2022).

Experiments:
macrophages = test: Macrophage markers by qPCR; type: cell-based; details: compared with vehicle
Procedure: The intracellular cytokines by TILs or in vitro differentiated T helper cells were quantified after restimulation with PMA plus ionomycin in the presence of GolgiStop for 6 h. The total RNA was isolated using the improved TRizol-based (Sigma, Darmstadt, Germany) method for qPCR analysis, and the mRNA expression was analyzed using a StepOnePlus (Life Technologies, Carlsbad, USA) real-time PCR instrument using housekeeping gene β-actin and Gapdh internal standards. qPCR was performed using A Power SYBR Green PCR Master Mix (Accurate Biology, Hunan, China) and two-cycle amplification for 40 cycles followed by the melting curve. The sequence of primers is listed in the Additional file 6: Table S1. In addition, the cytokines were quantified in cell-free culture supernatants using enzymelinked immunosorbent assay (ELISA) kit (the optical density (OD) value was measured at 450 nm, using 570 nm or 630 nm as the reference wavelengths, Multisciences, Hangzhou, China). The kit was used according to the manufacturer’s instructions.
To confirm the in vitro specificity of 8-074, splenocytes from C57BL/6 wild-type mice were activated by plate-bound anti-CD3 and anti-CD28 antibodies and polarized with anti-IL-4 and IL-12 to obtain Th1 cells. IFN-γ, a signature cytokine of Th1 cells, was not affected by LYC-55716 or 8-074 compared with vehicle alone (Fig. 2j, Fig. S2g).

[1] = tested on: Tc17 cells (CD8+ T cells); test: Murine Tc17 differentiation, flow cytometry; type: cell-based, mouse; details: Tc17, intracellular staining, same concentration
Procedure: CD4^+ CD25^−CD62L^high cells were purified from C57BL/6 splenocytes using an EasySep Mouse Naïve CD4^+ T cell isolation kit from STEMCELL Technologies (Vancouver, Canada), and they were differentiated into Th17 cells (TGF-β, 2 ng/ml; IL-6, 20 ng/ml; Anti-IFN-γ, 10 μg/ml; Anti-IL-4, 10 μg/ml, BioLegend, San Diego, CA) in the presence of plate-bound anti-CD3 (5 μg/ml, BioLegend, San Diego, CA) and anti-CD28 (2 μg/ml, BioLegend, San Diego, CA). The cells were harvested and processed for cytokine analysis at the RNA or protein level using real-time qPCR, flow cytometry, and ELISA on day five. Alternatively, splenocytes from OT-I mice were activated using OVA-derived peptides SIINFEKL (50 ng/ml, Sangon Biotech, Shanghai, China) and polarized to Tc17 cells using cytokine TGF-β (2 ng/ml, BioLegend, San Diego, CA) and IL-6 (20 ng/ml, BioLegend, San Diego, CA) for four or five days.
Cells were stained with fluorochrome-labeled anti-mouse Ab such as CD45, CD3, CD4, CD8, Foxp3, IFN-γ, IL-17A, CD11b, CD11c, pAKT, pSTAT3, CCR6, or MHCII. […] Cells were acquired using the FACS Aria II machine and analyzed using FlowJo software.

[2] = tested on: mutated RORγt protein at key binding sites; test: Biacore binding to mutated RORγt LBD protein; set-up: species or system human
Excerpt: Human nuclear receptor RORγt (residues 263–509)-GGG-SRC1 (SRC1 sequence: EKHKILHRLLQDS, Sangon Biotech, Shanghai). RORγt LBD was cloned in pET28a. Key residue mutations of RORγt LBD (such as PHE388, LEU391, CYS393, LEU396, ILE397, ILE400, CYS320, ALA321, LEU324, MET358, and PHE388) with LYC-55716 were cloned in pET28a. Key residue mutations of RORγt LBD (MET365, ALA368, PHE401, ILE400, ILE397, LEU396, TRP317, CYS320, LEU324, ALA327, TYR330, VAL331, MET358, and VAL361) with 8-074 were cloned in pET28a. The proteins were expressed in E. coli strain DE3. Then, the transformed E. coli culture was grown at 37 °C with 30 μg/mL Kanamycin LB (Luria–Bertani). When the OD600 of LB medium reached 0.6, the temperature was changed to 16 °C, and isopropyl-β-D-thiogalactopyranoside (IPTG, Beyotime, Shanghai, China) was added at a final concentration of 0.4 mM to induce protein expression for 16 h. After 16 h, the pellet was collected after centrifugation at 4,000 rpm for 15 min at 4 °C. […]
The RORγt protein was immobilized on a CM5 chip (GE Health, Chicago, USA) using Biaocre 8 K. A sensogram was obtained using different serial concentrations of 8-074 (5000 nM, 2500 nM, 1250 nM, 625 nM, 312.5 nM, 156.25 nM, 78.125 nM, and 39.0625 nM). […] Data were analyzed using Biacore Evaluation Software.

binding affinity with the mutated RORγt protein [2]: no binding affinity
Structure (SMILES): CCS(=O)(=O)c1ccc(CC(=O)Nc2ccc(-c3ccc(CC(C)C)c(C#N)c3)c(C(F)(F)F)c2)cc1 [8-074]
gene expression of macrophage markers Arg1, Il-1β, Il-6, and Il-10 (macrophages): no significant change
percentage of CD8+ T cells that express IL-17A [1]: 50.4%
